Results reported in US10806729B2, “Quinoline derivatives for use in the treatment or prevention of viral infection” (ABIVAX, priority 2015, dated 2020).

How the values were obtained:
[1] = system: HIV-1 strain YU2; assay: HIV-1 p24 production in infected monocyte derived macrophages (ELISA); format: cell-based; settings: Human immunodeficiency virus 1, Primary macrophage; primary macrophages infected with Yu-2, at 0.1 μM; read-out: inhibition levels of virus replication (p24)
From the text: FIG. 1. Potency of quinoline derivatives to inhibit HIV-1 production in PBMC- and macrophages-infected cells. […] Each point represents 6 donors. B) HIV-1 strain YU2 was used to infect triplicate of monocyte derived-macrophages from different donors in the absence or presence of increasing concentrations of Compound 22. […] Each point represents 8 donors. To generate monocyte derived macrophages (MDMs), monocytes were isolated using CD14 microbeads (catalog no. 130-050-201; Miltenyi) and cultured in X-VIVO10 medium (Lonza) supplemented with GM-CSF 1000 U/ml and M-CSF 100 ng/ml for 6 days. Monocytes were seeded at a cell count of 50,000 cells per well in a 96 well plate. After 6 days medium was replaced with X-VIVO10 w/o Cytokines. After 2 days Macrophages were treated with Compound 22 and/or its N-glucuronide metabolite o/n and next day infected with Yu-2 virus for 6 hrs, washed with PBS and cultured in medium containing the compounds for 12 days. Supernatant for p24 Elisa was collected 2 times a week. Cells were treated with 0.01 μM up to 30 μM and p24 antigen levels were monitored in culture supernatant over a 12 day period. Cell culture supernatant HIV p24 titration was performed by ELISA with Ingen Innotest kit (Ingen Ref 80564) according to the manufacturer's instructions.

[2] = system: HIV-1; settings: human PBMCs, increasing drug pressure
Description: Resistance to Compound 22 was tested on human PBMCs and compared to current therapies. […] Various classes of antiviral agents can affect the life cycle of HIV-1 in different manners. […] The selection of drug resistant mutants in vitro can be readily accomplished by maintaining the virus in a state of sub-optimal growth, regulated by slowly increasing the amount of drug pressure applied. This technique mimics the consequences of drug therapy in patients. Therefore, in this way, novel compounds can be assessed for their selection profile in order to evaluate the likelihood of emergence of HIV-1 drug resistance in future clinical trials. In addition, combinations of drugs can be investigated in the same manner.

O=C(O)[C@H]1O[C@@H](N(c2ccc(OC(F)(F)F)cc2)c2ccc3cccc(Cl)c3n2)[C@H](O)[C@@H](O)[C@@H]1O [N-glucuronide metabolite]
inhibition at 0.1 µM [1]: ≤ 90%

Cc1ccnc2c1NC(=O)c1cccnc1N2C1CC1 [Nevirapine, reference compound]
Time of Selection (weeks) [2]: 3 weeks

C[C@H](Cn1cnc2c(N)ncnc21)OCP(=O)(O)O [Tenofovir, reference compound]
Time of Selection (weeks) [2]: 12 weeks
